From PubChem BioAssay AID1259407 (Chemical Carcinogenesis Research Information System (CCRIS), 2018) come the findings set out here.

The source made the active and inactive calls. No rule for the calls is given here.

The test system of the series is CCRIS mutagenicity, Ames/micronucleus/aberration tests. The series can be described thus: CCRIS mutagenicity studies. Particulars: Test System: AMES SALMONELLA TYPHIMURIUM, Metabolic Activation: RAT, LIVER, S-9, PHENOBARBITAL AND BETA-NAPHTHOFLAVONE, Method: PREINCUBATION

In the case of `CN1CCc2cc3c(c4c2[C@H]1[C@H](O)c1ccccc1-4)OCO3`, the mutagenic call by setting is: (Strain/Indicator: TA98) “active; positive”; (Strain/Indicator: TA100) “active; positive”.
